Test results published in patent US11905282B1, “1-cyclopropyl-7-(4-((5-(2,4-dichlorobenzylideneamino)-2-thioxo-1,3,4-thiadiazol-3(2H)-yl)methyl)piperazin-1-yl)-6-fluoro-4-oxo-1,4-dihydroquinoline-3-carboxylic acid as an anti-inflammatory compound” (KING FAISAL UNIVERSITY, priority 2023, dated 2024).
Read-outs that look alike come from different tables or passages of the source.

Target: Bovine Serum Albumin (Bos taurus, UniProt P02769)
Assay: Bovine Serum Albumin Assay (BSA), inhibition of heat-induced protein denaturation (in vitro anti-inflammatory activity)
Assay type: biochemical
Procedure: Bovine Serum Albumin Assay (BSA) In vitro-inflammatory activities of the tested samples were determined using a modified method of the BSA assay reported by Williams et al. BSA solution (0.4%, w/v) was prepared in Tris Buffered Saline. The pH was adjusted to 6.4 with glacial acetic acid. Different dilutions of 20, 40, 60, 80, and 100 μg/mL of 1-cyclopropyl-6-fluoro-4-oxo-7-(4-((5-oxo-2-phenyl-4-(quinolin-2-ylmethylene)-4,5-dihydro-1H-imidazol-1-yl)methyl)piperazin-1-yl)-1,4-dihydroquinoline-3-carboxylic acid in the stock solutions were added to test tubes containing 1 mL of 0.4%, w/v BSA buffer solution. Both negative (solvent) and positive (aspirin) controls were assayed in a similar manner. The solutions were then heated in a water bath at 72° C. for 10 minutes and cooled for 20 minutes under laboratory conditions. The turbidity of the solutions (level of protein precipitation) was measured at 660 nm in Spectrophotometer (V-770 UV-Visible/NIR Spectrophotometer). The percentage inhibition of precipitation (protein denaturation) was determined relative to the negative control using the following equation: [formula] [formula]

[1] = read-out: percentage inhibition of precipitation (protein denaturation)

Bovine Serum Albumin, sequence (P02769 25-607): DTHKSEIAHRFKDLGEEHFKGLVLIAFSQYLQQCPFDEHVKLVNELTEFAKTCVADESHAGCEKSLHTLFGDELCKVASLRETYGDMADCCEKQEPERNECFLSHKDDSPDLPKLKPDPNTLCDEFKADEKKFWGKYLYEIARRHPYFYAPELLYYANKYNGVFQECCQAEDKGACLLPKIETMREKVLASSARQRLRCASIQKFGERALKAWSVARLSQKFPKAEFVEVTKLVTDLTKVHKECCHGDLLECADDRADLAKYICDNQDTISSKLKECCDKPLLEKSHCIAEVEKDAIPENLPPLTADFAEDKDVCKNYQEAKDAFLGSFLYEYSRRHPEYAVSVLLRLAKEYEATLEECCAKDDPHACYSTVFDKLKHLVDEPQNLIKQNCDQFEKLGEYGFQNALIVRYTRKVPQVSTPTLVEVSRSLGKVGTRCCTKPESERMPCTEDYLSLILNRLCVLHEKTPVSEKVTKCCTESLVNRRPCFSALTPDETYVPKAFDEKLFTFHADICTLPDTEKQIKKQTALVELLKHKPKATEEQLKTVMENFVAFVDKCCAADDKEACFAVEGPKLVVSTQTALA

inhibition at 100 µg/mL (concentration 100 μg/ml, 72° C. 10 minutes, turbidity at 660 nm, read-out: percentage inhibition of precipitation (protein denaturation)) [%]	in vitro anti-inflammatory effect (BSA assay, result in words)	inhibition at 20 µg/mL [1] [%]	inhibition at 40 µg/mL [1] [%]	inhibition at 60 µg/mL [1] [%]	inhibition at 80 µg/mL [1] [%]	inhibition at 100 µg/mL [1] [%]	SMILES
90.7							CC(=O)Oc1ccccc1C(=O)O [P.C, aspirin, reference compound]
	considerable anti-inflammatory effect	68.2	75.7	79.1	83.8	87.6	O=C(O)c1cn(C2CC2)c2cc(N3CCN(Cn4nc(/N=C/c5ccc(Cl)cc5Cl)sc4=S)CC3)c(F)cc2c1=O [Present compound, 1-cyclopropyl-7-(4-((5-(2,4-dichlorobenzylideneamino)-2-thioxo-1,3,4-thiadiazol-3(2H)-yl)methyl)piperazin-1-yl)-6-fluoro-4-oxo-1,4-dihydroquinoline-3-carboxylic acid]
